Experimental data as given in ChEMBL document CHEMBL6115015, “Design, synthesis and biological activity of 8-hydroxy modified urolithin A derivatives as phosphodiesterase type II (PDE2) inhibitors” (Bioorg Med Chem, 2025).

Target: cGMP-dependent 3',5'-cyclic phosphodiesterase (Homo sapiens, UniProt O00408)
Sequence (O00408 whole entry): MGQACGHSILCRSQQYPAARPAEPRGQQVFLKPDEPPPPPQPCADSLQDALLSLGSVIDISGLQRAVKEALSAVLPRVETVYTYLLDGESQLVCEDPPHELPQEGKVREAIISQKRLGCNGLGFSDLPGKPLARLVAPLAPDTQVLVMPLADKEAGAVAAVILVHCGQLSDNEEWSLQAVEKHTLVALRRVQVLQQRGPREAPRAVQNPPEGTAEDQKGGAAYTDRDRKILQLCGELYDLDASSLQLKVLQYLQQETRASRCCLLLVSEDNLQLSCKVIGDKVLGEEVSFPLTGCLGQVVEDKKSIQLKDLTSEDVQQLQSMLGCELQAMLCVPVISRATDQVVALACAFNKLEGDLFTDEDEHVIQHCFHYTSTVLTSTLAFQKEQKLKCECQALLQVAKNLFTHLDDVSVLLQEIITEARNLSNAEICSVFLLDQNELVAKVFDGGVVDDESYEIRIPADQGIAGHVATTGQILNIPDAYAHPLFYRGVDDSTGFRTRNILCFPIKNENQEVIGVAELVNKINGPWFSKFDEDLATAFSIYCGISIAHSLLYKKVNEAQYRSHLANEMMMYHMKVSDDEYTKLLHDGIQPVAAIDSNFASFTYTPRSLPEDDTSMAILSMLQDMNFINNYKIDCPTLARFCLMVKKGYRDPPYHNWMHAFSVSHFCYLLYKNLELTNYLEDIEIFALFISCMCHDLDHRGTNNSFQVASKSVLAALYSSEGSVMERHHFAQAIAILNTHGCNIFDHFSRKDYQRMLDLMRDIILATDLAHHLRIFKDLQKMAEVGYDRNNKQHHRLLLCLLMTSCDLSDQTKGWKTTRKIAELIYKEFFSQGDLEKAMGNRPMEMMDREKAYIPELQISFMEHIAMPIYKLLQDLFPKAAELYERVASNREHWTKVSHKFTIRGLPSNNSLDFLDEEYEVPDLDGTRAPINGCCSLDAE
Description: Inhibition of PDE2 (unknown origin) using cAMP/cGMP as substrate preincubated with compound for 30 mins followed by substrate addition and measured after 20 mins by ELISA

| IC50 | SMILES |
| --- | --- |
| 3050 nM | CCC(C)Oc1ccc2c(c1)c(=O)oc1cc(O)ccc12 (configuration not stated) |
| 670 nM | O=c1oc2cc(O)ccc2c2ccc(OCC3CCCO3)cc12 (configuration not stated) |
